Measured values as given in ChEMBL document CHEMBL1137949, “Mechanism of action of pyridazine analogues on protein tyrosine phosphatase 1B (PTP1B)” (Bioorg Med Chem Lett, 2004).
One block for each compound: values may come before it. Calls of active or inactive are those of the source. The rule behind the calls is not given here.

Key:
[1] = Inhibitory activity against Protein-tyrosine phosphatase activity; active
[2] = Enzymatic activity of protein tyrosine phosphatase 1B in the presence (10 uM) was measured using para-nitrophenylphosphate (pNPP) as the substrate in the presence of […] (1 mM) and catalase (25 ug/mL); abolished the inhibitory effect
[3] = Enzymatic activity of protein tyrosine phosphatase 1B in the presence (10 uM) was measured using para-nitrophenylphosphate (pNPP) as the substrate in the presence of […] (1 mM); inhibited
[4] = Enzymatic activity of protein tyrosine phosphatase 1B in the presence (10 uM) was measured using para-nitrophenylphosphate (pNPP) as the substrate; active
[5] = Enzymatic activity of protein tyrosine phosphatase 1B in the presence (10 uM) was measured using para-nitrophenylphosphate (pNPP) as the substrate in the presence of TCEP (1 mM); inhibited
[6] = Enzymatic activity of protein tyrosine phosphatase 1B in the presence (10 uM) was measured using para-nitrophenylphosphate (pNPP) as the substrate in the presence of TCEP (1 mM) and catalase (25 ug/mL); activity not restored

Activity [1]: Active
SMILES: O=C1CC(=O)N(c2ccccc2)O1

Activity [1]: Active
SMILES: OO

SMILES: CC1(C)C=C2C(=NN(c3ccccc3)C(N)=C2C#N)CO1.OC(CS)C(O)CS
Activity [2]: abolished the inhibitory effect
Activity [3]: abolished the inhibitory effect

SMILES: CC1(C)C=C2C(=NN(c3ccccc3)C(N)=C2C#N)CO1
Activity [4]: Active

SMILES: O=C(O)CCP(CCC(=O)O)CCC(=O)O
Activity [4]: Active

SMILES: CC1(C)C=C2C(=NN(c3ccccc3)C(N)=C2C#N)CO1.O=C(O)CCP(CCC(=O)O)CCC(=O)O
Activity [5]: activity not restored
Activity [6]: activity not restored

Activity [4]: Active
SMILES: OC(CS)C(O)CS (centres undefined)
